This note sets out measurements from US12606827B2, “Compounds for treatment of osteoarthritis” (Altos Labs, Inc., priority 2020, dated 2026).

The structures appear in SMILES notation.

For the assay, the system named is Healthy Articular Chondrocytes (HACs). Nature of the assay: LPS-stimulated intracellular ROS (CM-H2DCFDA) in healthy chondrocytes. The settings on record: 0.1 μM and 1 μM, 1 h pretreatment, then LPS 1 μg/ml for 48 h. It is filed as cell-based, human. How it is done:
Human articular chondrocytes (HAC) were transiently transfected with a siRNA control or targeting USP16 as described in Example 2. 36 hours post knockdown, cells were stimulated with LPS 1 μg/ml) for 48 h. Healthy Articular Chondrocytes (HACs) were pretreated with 0.1- and 1-μM Compound 2 for 1 h and then stimulated with LPS (1 μg/ml) for 48 h. At the end of the treatment, fluorescent dye, CM-H2DCFDA (final concentration 10 μl of 20 μM) was added to cells and incubated for 30 min in CO2 incubator to measure the intracellular ROS produced in these cells. After incubation, the cells were washed with cold-phosphate buffered saline and the fluorescence intensity of the stained cells was measured at an excitation and emission wavelength of 485 nm and 530 nm respectively. Fluorescence intensity was then normalized for cell number using Hoechst staining.
Chondrocytes were pretreated with 0.1- and 1-μM CA for 1 h and then stimulated with LPS (1 μg/m)l for 48 h. For siRNA experiment, LPS stimulation was performed 36 hours after knockdown for additional 48 h. […] After incubation, the cells were washed with cold-phosphate buffered saline and the fluorescence intensity of the stained cells was measured at an excitation and emission wavelength of 485 nm and 530 nm respectively. Fluorescence intensity was then normalized for cell number using Hoechst staining.

`C#Cc1ccc(CNC(=O)c2cc(C(=O)CCl)cn2C)cc1` [Compound 2]: the “inflammation-induced oxidative stress (intracellular ROS)” value is reported as “reduced inflammation-induced oxidative stress in healthy chondrocytes in a dose-dependent manner”.
